{"source": "patent US20240238316A1", "about": "“C[…]” (priority 2021, published 2024)", "assay": "solvents tested for dissolving the acid and the cannabinoid", "assay_type": "physicochemical", "details": "compared with other solvents, including other alcohols", "procedure": "Various solvents are tested, including other alcohols.", "data": [{"molecule": "CC(O)CO", "note": "(stereo not shown) [Propylene glycol]", "values": [{"measurement": "dissolution of the acid and the cannabinoid in the solvent", "result": "dissolve both the acid and the cannabinoid efficiently and without excessive heating"}]}]}
